The subject of assay [1] is ARE-driven luciferase activity in AREc32 cells. The assay can be described thus: Induction of ARE-driven luciferase activity in stable AREc32 reporter cells. In kind it is cell-based, human. Conditions: for CD, concentration of inducting agent that doubled luciferase reporter activity: DMSO set at 1. In general terms: In a reporter assay the amount or activity of a reporter protein is the signal.

The subject of assay [2] is AKR1C and NQO1 protein in MCF7 cells. The assay can be described thus: AKR1C and NQO1 protein in MCF7 cells (Western blots). In kind it is cell-based, human. Conditions: sulforaphane 5 μM + retinoid 0.5 μM, 24 hrs. As to the method: Method: AREc32 cells were seeded out in 96 well plates and treated with DMSO (control), tBHQ (50 μM), tBHQ+BTB09463 (5 μM) or tBHQ+Retinoic acid (1 μM). After 24 hours incubation, cells were washed and lysed before measuring luciferase activity. BTB09463 is 1-{4-[(3,4-dichlorobenzyl)oxy]phenyl}ethan-1-one. […] Method: AREc32 cells were seeded out in 96 well plates and dosed with BTB09463 (2.5, 5 or 10 μM) for 0, 24 or 48 hrs before treatment with tBHQ (50 μM). 24 hours after the addition of tBHQ, cells were washed and lysed before measuring luciferase activity. […] Method: ARE c32 cells were seeded out in 96 well plates and treated with DMSO (control), tBHQ (50 μM), tBHQ+retinoid (0.25, 0.5 and 1 μM). After 24 hours incubation, cells were washed and lysed before measuring luciferase activity. […] See FIG. 16 Method: A. Caco-2 cells were treated with the known ARE-gene inducer sulforaphane (5 μM), either alone or concomitantly with BTB09463 (5 μM) or Retinoic acid (1 μM). After 24 hrs, cell lysates were prepared and Western blotting performed to measure the levels of AKR1C protein. B. MCF7 cells were treated with sulforaphane (5 μM), either alone or concomitantly with BTB09463 (5 μM). After 24 hrs, cell lysates were prepared and Western blots performed to detect the levels of AKR1C and NQO1; GAPDH was used as a loading control in MCF7 cells. […] Method: Caco-2 cells were treated with DMSO (control), BTB09463 (5 μM), sulforaphane (5 μM) or a combination of sulforaphane plus BTB09463. After 24 hrs treatment, cells were harvested and RNA isolated. cDNA for each sample was generated by reverse transcription and subsequently used in real time PCR analysis of gene transcription (TaqMan analysis) for the ARE-driven genes AKR1C1 and NQO1. Data was normalised to the internal control 18S RNA and the relative levels of AKR1C1 and NQO1 calculated using the comparative CT method. […] Method: MCF7 cells were treated with the known ARE-gene inducer sulforaphane (5 μM), either alone or with various retinoids (0.5 μM). After 24 hrs, cell lysates were prepared and Western blots were performed to detect the levels of AKR1C protein present. […] See FIG. 19 Method: ARE reporter cell line AREc23 was seeded into 96 well plates and treated with a previously determined non-toxic concentration of cytotoxic drug. After 24 hours incubation, cells were washed and lysed before measuring luciferase activity. […] See FIG. 20a Method: ARE reporter cell line AREc23 was seeded into 96 well plates and treated with DMSO (control), Carmustine (100 μM), Carmustine+BTB09463 (5 μM) or Carmustine+Retinoic acid (5 μM) After 24 hours incubation, cells were washed and lysed before measuring luciferase activity. […] After 24 hours incubation, cells were washed and lysed before measuring luciferase activity. B. Modified repeat of experiment A, with cells being pretreated with L-buthionine-(SR)-sulfoximine (BSO), an inhibitor of enzymes in the glutathione synthesis pathway. After 24 hours incubation, cells were washed and lysed before measuring luciferase activity. […] Method: Caco-2 cells were treated for 24 hrs with DMSO (control), Carmustine (100 μM), Carmustine+BTB09463 (5 μM). After 24 hrs, cell lysates were prepared and Western blots to detect the levels of AKR1C. […] Method: MCF7 cells were treated for 24 hrs with DMSO (control; Lane 1), Sulforaphane (5 μM) (Lane 2), Carmustine (100 μM) (Lane 3), Carmustine+BTB09463 (5 μM) (Lane 5). (Lane 4 represents experimental conditions irrelevant to the application). After 24 hrs, cell lysates were prepared and Western blots to detect the levels of Nrf2, NQO1 and AKR1C proteins.
On the technique in general: A western blot detects proteins with antibodies after separation by electrophoresis.

The subject of another assay is MCF7 cells. The experiment in a line: cells. In kind it is cell-based. Conditions: 72 hrs.
Assay [3] concerns AKR1C mRNA in AREc32 cells. The experiment in a line: AKR1C mRNA in AREc32 cells (TaqMan). Conditions: without pre-treatment with BSO; 24 h. (In qPCR the cycle at which signal appears reflects the starting amount.)
[4] abbreviates: AREc32, 24 h, grouping of drugs by effect on luciferase activity.

Data on 13 compounds can be found in US20120309087A1, “CANCER THERAPY” (University Court of The University of Dundee, priority 2006, published 2012).

Like-named read-outs stand apart in the source and are kept apart here.

`CCOc1ccc2ccc(=O)oc2c1` [7-ethoxycoumarin]: in assay [1] (AREc32, 24 h), the “CD, concentration of inducting agent that doubled luciferase reporter activity” value (shortened to “CD, concentration”) was 100 µM.
Consider `COc1cc(C)c(/C=C/C(C)=C/C=C/C(C)=C/C(=O)O)c(C)c1C` [Acitretin], for which the “sulforaphane-induced AKR1C protein” value in assay [2] was “reduced the expression of sulforaphane-induced AKR1C”. In the assay on MCF7 cells, the “synergy with Bleomycin (cell killing, isobologram)” value was “very potent, synergistic increase in cell killing”.
As for `C=CC=O` [Acrolein], the “increase in luciferase activity” value in assay [1] (10 μM acrolein) came out at 27 fold. Further, the “CD, concentration” value in assay [1] (AREc32, 24 h) was found to be 2 µM. Further, in assay [1] (setting [4]), the Type of modulation entry is “Strong inducer”.
Consider `COc1ccc(O)c(C(C)(C)C)c1` [BHA], for which, in assay [1] (AREc32, 24 h), the “CD, concentration” value amounted to 20 µM.
Regarding `O=C(O)CCCc1ccc(N(CCCl)CCCl)cc1` [Chlorambucil], the “effect on luciferase activity in AREc32 cells (in words)” value (shortened to “effect on luciferase activity”) in assay [1] (24 h, sub-lethal doses, no BSO) is given as “weak inducers”. The Type of modulation entry in assay [1] (setting [4]) is reported as “Weak inducers”. Moreover, the “mRNA level of AKR1C (in words)” value in assay [3] is “only slightly increased”.
`N.N.[Cl][Pt][Cl]` [Cisplatin]: the “induction of luciferase activity after BSO pre-treatment” value in assay [1] (50 μM BSO 24 h, then 10 μM cisplatin, 20 μM melphalan, 100 μM BCNU or 100 μM chlorambucil 24 h) was determined as 3 fold. In addition, the Type of modulation entry in assay [1] (setting [4]) is given as “Weak inducers”. Also, the “mRNA level of AKR1C (in words)” value in assay [3] was “only slightly increased”.
On to `O=P1(N(CCCl)CCCl)NCCCO1` (centres unmarked) [Cyclophosphamide], for which, in assay [1], the Type of modulation entry is given as “Inactive” and the “effect on luciferase activity” value is “did not have any effect”.
Turning to `COc1cccc2c1C(=O)c1c(O)c3c(c(O)c1C2=O)C[C@@](O)(C(=O)CO)C[C@@H]3O[C@H]1C[C@H](N)[C@H](O)[C@H](C)O1` [Doxorubicin], the “effect on luciferase activity” value in assay [1] (24 h, sub-lethal doses, no BSO) is listed as “no effect”. In addition, in assay [1] (setting [4]), the Type of modulation entry is “Inactive”.
On the same counts, the results for `COc1cccc2c1C(=O)c1c(O)c3c(c(O)c1C2=O)C[C@@](O)(C(=O)CO)C[C@@H]3O[C@H]1C[C@H](N)[C@@H](O)[C@H](C)O1` [Epirubicin] are “no effect” and “Inactive”.
Take `CCOc1ccc2c(c1)C(C)=CC(C)(C)N2` [Ethoxyquin]: the “CD, concentration” value in assay [1] (AREc32, 24 h) was determined as 5 µM.
Consider `COc1cc([C@@H]2c3cc4c(cc3[C@@H](O[C@@H]3O[C@@H]5CO[C@@H](C)O[C@H]5[C@H](O)[C@H]3O)[C@H]3COC(=O)[C@H]23)OCO4)cc(OC)c1O` [Etopside, etoposide], for which the “effect of BSO pre-treatment on luciferase activity” value in assay [1] (50 μM BSO 24 h before drug, data not shown) is on record as “did not change luciferase activity significantly”. In addition, the “effect on luciferase activity” value in assay [1] (24 h, sub-lethal doses, no BSO) is reported as “modestly increased”. Further, the “Fold increase (luciferase activity relative to control value)” value in assay [1] (AREc32, 24 h, concentration of each drug given in column Conc., mean ± S.D.) is on record as 1.3 ± 0.07. For the same compound, the Type of modulation result in assay [1] (setting [4]) was “Weak inducers”.
Take `OO` [H2O2]: the “CD, concentration” value in assay [1] (AREc32, 24 h) stood at 300 µM.
As for `OCc1c[nH]c2ccccc12` [I3C], the “CD, concentration” value in assay [1] (AREc32, 24 h) was found to be 20 µM.
